Experimental data published in patent US7560547B2, “Hydroxyalkyl cyclic diamine compounds” (Kowa Co., Ltd., priority 2002, dated 2009).

melting point [°C] | SMILES
118 to 120 | Cc1cc(Br)c([N+](=O)[O-])c(Br)n1 [Example 1, 2,4-dibromo-6-methyl-3-nitropyridine]
93 to 94 | Cc1cc(Br)c(N)c(Br)n1 [Example 2, 3-amino-2,4-dibromo-6-methylpyridine]
197 to 199 | Cc1cc(Br)c(NC(=O)CBr)c(Br)n1 [Example 3, N-[2,4-dibromo-6-methylpyridin-3-yl]-2-bromoacetamide]
184 to 185 | Cc1cc(Cl)c(NC(=O)CBr)c(Cl)n1 [Example 5, N-[2,4-dichloro-6-methylpyridin-3-yl]-2-bromoacetamide]
119 to 120 | CSc1cc(C)nc(SC)c1NC(=O)CN1CCN(CCO)CC1 [Example 7, 2-[4-(2-hydroxyethyl)piperazin-1-yl]-N-[2,4-bis(methylthio)-6-methylpyridin-3-yl]acetamide]
